Patent US20220002411A1, “METHODS FOR TREATING IMMUNE RELATED OCULAR DISORDERS” (LEGEND MEDICAL-RIMONCI VISION TECHNOLOGY INCUBATION LIMITED, priority 2019, published 2022)

System: glaucoma mice (high intraocular pressure, C57BL/6J)
Assay: Glaucoma mouse model induced by intraocular injection of polystyrene microparticles (RGC and axon damage)
Format: in vivo, C57BL/6J mice
Conditions: 2 μl once a week at 0.2 μg/ml intravitreal; observed after 8 weeks; compared to IgG injected mice / controls
Experimental: Glaucoma mouse model. Two glaucoma mice models were used in the following experiments. In the first model, high intraocular pressure was induced in adult C57BL/6J mice by injecting polystyrene microparticles. First, mice were anesthetized by intraperitoneal injection of a mixture of ketamine (120 mg/kg) and xylazine (12 mg/kg). Then, a small puncture in the center of the right cornea of the mouse was incised with a 30 G needle (BD, USA). Then, 3 to […] of polystyrene particles of 15 μm diameter (Invitrogen, Oregon, USA) were injected at a 5×10^6/ml concentration into the right anterior chamber of the eye by a glass micro-injector. Left eyes were used as controls, by injecting […] of PBS into the left anterior chamber in a similar manner
Treatment with immune checkpoint inhibitors. […]
Pathologic assessments. After mice were sacrificed, optic nerve and retinal patches were taken to assess optic nerve damage. The optic nerve was fixed overnight with Karnovsky solution. Transverse sections of the optic nerve were obtained 2 mm after the eyeball and observed by electron microscopy (EM410, Philips). For retinal patches the eyeball was fixed with 4% paraformaldehyde overnight. Retinal patches and frozen sections were taken. Retinal ganglion cells (RGCs) were labeled with beta 3 tubulin (Invitrogen) and recorded using a confocal laser microscope (Olympus FV1000). […]

Nc1ncnc2c1ncn2[C@@H]1O[C@H](CO)[C@@H](O)[C@H]1O [adenosine]
RGCs loss (beta 3 tubulin staining): decreased RGCs loss
